What was measured:
[1] = tested on: Texas panicum; assay: Greenhouse pre-emergence GR15/GR85 selectivity test; type: in vivo; conditions: Table XVI
Text: (§1) A good grade of top soil is placed in aluminum pans and compacted to a depth of three-eighths to one-half inch from the top of the pan. On the top of the soil is placed a number of seeds or vegetative propagules of various plant species. The soil required to level fill the pans after seeding or adding vegetative propagules is weighed into a pan. The soil and a known amount of the active ingredient applied in a solvent or as a wettable powder suspension are thoroughly mixed, and used to cover the prepared pans. […] As an alternative procedure, the overhead irrigation may be omitted. Observations are made about 2-3 weeks after seeding and treatment.
(§2) A further guide to the effectiveness of a chemical as a selective herbicide is the "selectivity factor" ("SF") for a herbicide in given crops and weeds. The selectivity factor is a measure of the relative degree of crop safety and weed injury and is expressed in terms of the GR15 /GR85 ratio, i.e., the GR15 rate for the crop divided by the GR85 rate for the weed, both rates in kg/ha (lb/A). In the tables below, selectivity factors are shown in parenthesis following the GR85 rate for each weed; the symbol "NS" indicates "non-selective". Marginal or undetermined selectivity is indicated by a dash (--).
(§3) Unless otherwise noted; greenhouse tests in Table VI and in other tables below involved herbicide treatments by soil incorporation and an initial overhead irrigation followed by subirrigation as described above.

[2] = tested on: shattercane; assay: as above; type: in vivo; conditions: Table XVI
Text: as §1, §2, §3

[3] = tested on: alexandergrass; assay: as above; type: in vivo; conditions: Table XV; for selectivity factor (GR15/GR85): in rape
Text: as §1, §2, §3

[4] = tested on: fall panicum; assay: as above; type: in vivo; conditions: Table XVI
Text: as §1, §2, §3

[5] = tested on: seedling johnsongrass; assay: as above; type: in vivo; conditions: Table XVI
Text: as §1, §2, §3

[6] = tested on: red rice; assay: as above; type: in vivo; conditions: Table XVI
Text: as §1, §2, §3

[7] = tested on: itchgrass; assay: as above; type: in vivo; conditions: Table XVI
Text: as §1, §2, §3

[8] = tested on: corn; assay: as above; type: in vivo
Text: (§4) A good grade of top soil is placed in aluminum pans and compacted to a depth of three-eighths to one-half inch from the top of the pan. On the top of the soil is placed a number of seeds or vegetative propagules of various plant species. The soil required to level fill the pans after seeding or adding vegetative propagules is weighed into a pan. The soil and a known amount of the active ingredient applied in a solvent or as a wettable powder suspension are thoroughly mixed, and used to cover the prepared pans. After treatment, the pans are given an initial overhead irrigation of eater, equivalent to one-fourth inch (0.64 cm) rainfall, then watered by subirrigation as need to give adequate moisture for germination and growth. As an alternative procedure, the overhead irrigation may be omitted. Observations are made about 2-3 weeks after seeding and treatment.
(§5) In the discussion and tables of data below, reference is made to herbicide application rates symbolized as "GR15 " and "GR85 "; these rates are given in kilograms per hectare (kg/ha) which are convertible into pounds per acre (lbs/A) by dividing the kg/ha rate by 1.12.
as §2
In Table IV pre-emergence herbicidal activity data are presented comparing the relative efficacy of the invention compounds and said prior art compounds as selective herbicides against the resistant and troublesome perennial weeds quackgrass and yellow nutsedge in soybeans and corn, respectively. These weeds are commonly associated with such major crops as corn and soybeans. The test data in Table IV were obtained under identical procedural conditions and represent two replicate runs (except for the compound of Example 9 which was present in one comparative test). The test procedure was the same as described for Tables II and III but modified by the application of an initial overhead irrigation equivalent to 1/4" (0.64 cm) rainfall; subsequent watering was accomplished by subirrigation. "NS" means non-selective within the test limits.
(§6) Additionally, pre-emergence herbicidal data from other tests have established that compounds according to this invention also selectively suppress quackgrass, yellow nutsedge and/or other weeds in one or more of the crops cotton, peanuts, bush beans and/or rape. For example, in Table VI are presented data showing the herbicidal selectivity of the compounds of Examples 1 and 2 against quackgrass in rape and snap beans. Unless otherwise noted; greenhouse tests in Table VI and in other tables below involved herbicide treatments by soil incorporation and an initial overhead irrigation followed by subirrigation as described above.

[9] = tested on: wild proso millet; assay: as above; type: in vivo, wild proso millet (panicum milicaeum); conditions: Table XVI
Text: as §1, §2, §3

[10] = tested on: Yellow Nutsedge; assay: as above; type: in vivo
Text: as §1, §2
(§7) These weeds are commonly associated with such major crops as corn and soybeans. […] The test procedure was the same as described for Tables II and III but modified by the application of an initial overhead irrigation equivalent to 1/4" (0.64 cm) rainfall; subsequent watering was accomplished by subirrigation. "NS" means non-selective within the test limits.
as §3

[11] = tested on: Quackgrass; assay: as above; type: in vivo
Text: as §1, §2, §7, §3

[12] = tested on: rape; assay: as above; type: in vivo; conditions: Table XV
Text: as §4, §5, §2, §6
In another greenhouse test, the compounds of Examples 3-5, 9 and 10 were tested for their herbicidal efficacy against a variety of resistant annual and perennial weeds in rape.

[13] = tested on: Quackgrass; assay: Herbicidal effect in a variety of soil types; type: in vivo; conditions: Table XVII B; for selectivity factor (GR15/GR85): in soybeans
[14] = tested on: soybeans; assay: Herbicidal effect in a variety of soil types; type: in vivo; conditions: Table XVII B

SMILES: CCCOCN(C(=O)CCl)c1c(CC)cccc1C(F)(F)F [Example 10, N--(n-propoxymethyl)-2'-trifluoromethyl-6'-ethyl-2-chloroacetanilide]
- GR85 Rate [1]: 1.1 Kg/Ha
- selectivity factor (GR15/GR85) ([1]; in lima beans): > 1
- selectivity factor (GR15/GR85) ([1]; in peanuts): NS (non-selective)
- GR85 Rate [2]: 0.56 Kg/Ha
- selectivity factor (GR15/GR85) ([2]; in lima beans): > 2
- selectivity factor (GR15/GR85) ([2]; in peanuts): 1.8
- GR85 Rate [3]: 0.36 Kg/Ha
- selectivity factor (GR15/GR85) [3]: > 3.1
- GR85 Rate [4]: 0.22 Kg/Ha
- selectivity factor (GR15/GR85) ([4]; in lima beans): > 5.1
- selectivity factor (GR15/GR85) ([4]; in peanuts): 4.5
- GR85 Rate [5]: 0.36 Kg/Ha
- selectivity factor (GR15/GR85) ([5]; in lima beans): > 3.1
- selectivity factor (GR15/GR85) ([5]; in peanuts): 2.7
- GR85 Rate [6]: 0.98 Kg/Ha
- selectivity factor (GR15/GR85) ([6]; in lima beans): > 1.1
- selectivity factor (GR15/GR85) ([6]; in peanuts): 1
- GR85 Rate [7]: 0.90 Kg/Ha
- selectivity factor (GR15/GR85) ([7]; in lima beans): > 1.2
- selectivity factor (GR15/GR85) ([7]; in peanuts): 1.1
- GR15 ([8]; Table XII): 1.7 Kg/Ha
- GR15 ([8]; Table XIII): 2.5 Kg/Ha
- GR85 Rate [9]: 0.80 Kg/Ha
- selectivity factor (GR15/GR85) ([9]; in lima beans): > 1.4
- selectivity factor (GR15/GR85) ([9]; in peanuts): 1.2
- GR85 ([10]; Table XII): 0.38 Kg/Ha
- selectivity with respect to yellow nutsedge in rice ([10]; in rice): non-selective
- selectivity factor (GR15/GR85) ([10]; yellow nutsedge in corn, Table XII): 4.5
- selectivity factor (GR15/GR85) ([10]; yellow nutsedge in cotton, Table XII): 7.4
- selectivity factor (GR15/GR85) ([10]; yellow nutsedge in soybeans, Table XII): 5.8
- GR85 ([11]; Table XIII): 0.45 Kg/Ha
- selectivity against quackgrass in wheat ([11]; in wheat): non-selective
- selectivity factor (GR15/GR85) ([11]; quackgrass in corn, Table XIII): 5.6
- selectivity factor (GR15/GR85) ([11]; quackgrass in soybeans, Table XIII): 3.3
- GR15 Rate [12]: > 1.12 Kg/Ha

SMILES: Cc1cccc(C(F)(F)F)c1N(COCC(C)C)C(=O)CCl [Example 5, N--(isobutoxymethyl)-2'-trifluoromethyl-6'-methyl-2-chloroacetanilide]
- GR85 Rate [1]: 0.53 Kg/Ha
- selectivity factor (GR15/GR85) ([1]; in lima beans): > 2.1
- selectivity factor (GR15/GR85) ([1]; in peanuts): 1.1
- GR85 Rate [2]: 0.56 Kg/Ha
- selectivity factor (GR15/GR85) ([2]; in lima beans): > 2
- selectivity factor (GR15/GR85) ([2]; in peanuts): 1
- GR85 Rate [3]: 0.7 Kg/Ha
- selectivity factor (GR15/GR85) [3]: > 1.6
- GR85 Rate [4]: 0.28 Kg/Ha
- selectivity factor (GR15/GR85) ([4]; in lima beans): > 4
- selectivity factor (GR15/GR85) ([4]; in peanuts): 2
- GR85 Rate [5]: 0.37 Kg/Ha
- selectivity factor (GR15/GR85) ([5]; in lima beans): > 3
- selectivity factor (GR15/GR85) ([5]; in peanuts): 1.5
- GR85 Rate [6]: 0.53 Kg/Ha
- selectivity factor (GR15/GR85) ([6]; in lima beans): > 2.1
- selectivity factor (GR15/GR85) ([6]; in peanuts): 1.1
- GR85 Rate [7]: 0.56 Kg/Ha
- selectivity factor (GR15/GR85) ([7]; in lima beans): > 2
- selectivity factor (GR15/GR85) ([7]; in peanuts): 1
- GR85 ([13]; Drummer silty clay): 1.1 Kg/Ha
- GR85 ([13]; Florida muck): 3.0 Kg/Ha
- GR85 ([13]; Florida sand): 1.1 Kg/Ha
- GR85 ([13]; Ray silt loam): > 2.2 Kg/Ha
- GR85 ([13]; Sarpy silty clay): 1.6 Kg/Ha
- GR85 ([13]; Wabash silty clay): 1.6 Kg/Ha
- selectivity factor (GR15/GR85) ([13]; Drummer silty clay): 2
- selectivity factor (GR15/GR85) ([13]; Florida sand): 3
- selectivity factor (GR15/GR85) ([13]; Ray silt loam): NS (non-selective)
- selectivity factor (GR15/GR85) ([13]; Sarpy silty clay): 2
- selectivity factor (GR15/GR85) ([13]; Wabash silty clay): 1.5
- GR85 Rate [9]: 0.56 Kg/Ha
- selectivity factor (GR15/GR85) ([9]; in lima beans): > 2
- selectivity factor (GR15/GR85) ([9]; in peanuts): 1
- GR15 ([14]; Drummer silty clay): 2.2 Kg/Ha
- GR15 ([14]; Florida muck): > 2.0 Kg/Ha
- GR15 ([14]; Florida sand): 3.0 Kg/Ha
- GR15 ([14]; Ray silt loam): 2.0 Kg/Ha
- GR15 ([14]; Sarpy silty clay): 3.0 Kg/Ha
- GR15 ([14]; Wabash silty clay): 2.2 Kg/Ha
- GR15 Rate [12]: > 1.12 Kg/Ha

Source: patent publication US4731109A, “Herbicidal 2-haloacetanilides” (Monsanto Company, priority 1982, dated 1988)
